Here are results for 17 compounds from BindingDB's records for patent US20240300941 (Zhuhai Yufan Biotechnologies, 2024).

The structures appear in SMILES notation.

In this assay the target is Mitogen-activated protein kinase kinase kinase kinase 1 (Homo sapiens, UniProt Q92918). Nature of the assay: HPK1 ADP-Glo Enzyme Assay. The protocol: The buffer used in the enzyme assay contains 5 mM MOPS (pH=7.2), 2.5 mM β-Glycerol Phosphate, 0.4 mM EDTA, 1 mM EGTA, 0.05 mM DTT, 5 mM MgCl2. The compound was dissolved in 100% DMSO at the concentration was 10 mM. The initial concentration of the test was 5 uM, and ten data points were diluted by three-fold gradient, and each point was repeatedly measured twice. The HPK1 protein was purchased from Thermo (Cat. No. PV6355) and diluted to 2× stock solution at the concentration of 10 nM (the final concentration of the enzyme assay was 5 nM). 2.5 µl of 2×HPK1 protein was added to each well of the plate containing the test compound, centrifuged at 1000 rpm for 30 seconds, and then incubated at 25° C. for 15 minutes. MBP protein was purchased from Millipore (Cat. No. 13-110) and ATP was purchased from Sigma (Cat. No. A7699-5G) and the two were formulated into 2× working solutions at concentrations of 4 uM and 80 uM. Added 2.5 μl mixture of 2×MBP and ATP, centrifuged at 1000 rpm for 30 seconds, then incubated at 25° C. for 90 minutes. Then added 5 ul of ADP-Glo (Promega, Cat. No. V9102) to the assay plate and incubated […] at 25° C. for 60 minutes. Finally, 10 ul of the kinase assay reagent (Promega, Cat. No. V9102) was added to the assay plate, centrifuged at 1000 rpm for 30 seconds at 25° C. for 60 minutes, and the […] was determined.
Mitogen-activated protein kinase kinase kinase kinase 1, sequence (Q92918 whole entry): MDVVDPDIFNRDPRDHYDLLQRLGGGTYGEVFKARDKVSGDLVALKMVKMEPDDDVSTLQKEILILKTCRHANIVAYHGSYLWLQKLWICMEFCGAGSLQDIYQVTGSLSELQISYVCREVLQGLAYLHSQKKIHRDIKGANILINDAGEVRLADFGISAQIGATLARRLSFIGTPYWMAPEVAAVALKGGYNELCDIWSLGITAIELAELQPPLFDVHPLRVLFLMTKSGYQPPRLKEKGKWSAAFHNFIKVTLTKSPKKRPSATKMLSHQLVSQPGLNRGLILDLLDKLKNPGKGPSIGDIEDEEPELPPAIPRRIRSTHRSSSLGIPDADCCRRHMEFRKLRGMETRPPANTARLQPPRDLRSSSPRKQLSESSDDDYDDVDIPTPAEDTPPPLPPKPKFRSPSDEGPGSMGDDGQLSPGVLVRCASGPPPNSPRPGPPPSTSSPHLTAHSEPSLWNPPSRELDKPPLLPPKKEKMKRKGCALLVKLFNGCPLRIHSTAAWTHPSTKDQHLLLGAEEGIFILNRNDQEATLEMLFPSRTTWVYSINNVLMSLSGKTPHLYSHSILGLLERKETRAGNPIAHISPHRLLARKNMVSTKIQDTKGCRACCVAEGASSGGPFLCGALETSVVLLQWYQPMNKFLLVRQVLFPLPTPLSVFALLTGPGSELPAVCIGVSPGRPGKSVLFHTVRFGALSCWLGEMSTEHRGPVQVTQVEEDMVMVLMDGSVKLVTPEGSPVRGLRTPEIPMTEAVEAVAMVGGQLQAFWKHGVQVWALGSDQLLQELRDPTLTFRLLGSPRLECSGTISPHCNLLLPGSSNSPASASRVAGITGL
In the case of `CN1CCC(c2ncc(-c3cnc(N)c(OCc4cccc(C#CC(C)(C)O)c4)c3)s2)CC1` [US20240300941, Compound A3], the IC50 is less than 100 nM.

For `CN1CCC(c2ncc(-c3cnc(N)c(OC(C)(C)c4ccncc4)c3)s2)CC1` [US20240300941, Compound A6], the IC50 is greater than 1000 nM.

The compound `Nc1ncc(-c2cnc(C3CCNCC3)s2)cc1OCc1ccncc1` [US20240300941, Compound A7] had an IC50 of less than 100 nM.

`CN1CCC(c2ncc(-c3cnc(N)c(OCc4ccnc(Cl)c4)c3)s2)CC1` [US20240300941, Compound A8] displayed an IC50 of less than 100 nM.

Consider `COc1ccc(COc2cc(-c3cnc(C4CCN(C)CC4)s3)cnc2N)cc1` [US20240300941, Compound A9], for which the IC50 is greater than 1000 nM.

`CN1CCC(c2ncc(-c3cnc(N)c(OCc4ccnc(C#CC(C)(C)O)c4)c3)s2)CC1` [US20240300941, Compound A10] came in with an IC50 of less than 100 nM.

On to `CN1CCN(c2ncc(-c3cnc(N)c(OCc4ccncc4)c3)s2)CC1` [US20240300941, Compound A12], for which the IC50 is less than 100 nM.

`Nc1ncc(-c2cnc(C3CCOCC3)s2)cc1OCc1ccncc1` [US20240300941, Compound A13] gave a half-maximal inhibitory concentration (IC50) of less than 100 nM.

Take `CN1CCC(n2cc(-c3cnc(N)c(OCc4ccncc4)n3)c(N)n2)CC1` [US20240300941, Compound A14]: the half-inhibitory concentration (IC50) fell in the range of 100 to 1000 nM.

On to `CN1CCC(c2ncc(-c3cnc(N)c(OCc4cccc(C#CC5(O)CCCC5)c4)c3)s2)CC1` [US20240300941, Compound A34], for which the 50% inhibitory concentration (IC50) is less than 100 nM.

For `CC(C)c1ncc(-c2cnc(N)c(OCc3ccncc3)c2)s1` [US20240300941, Compound A36], the IC50 was less than 100 nM.

For the compound `Nc1ncc(-c2cnc(C3CCCCC3)s2)cc1OCc1ccncc1` [US20240300941, Compound A37], the IC50 is less than 100 nM.

The compound `CN1CCC(c2ncc(-c3cnc(N)c(OCc4cccc(C#CC5(O)CCCCC5)c4)c3)s2)CC1` [US20240300941, Compound A38] came in with an IC50 greater than 1000 nM.

`CN1CCC(c2ncc(-c3cnc(N)c(OCc4cccc(C#CC5(O)CCC5)c4)c3)s2)CC1` [US20240300941, Compound A40] showed a half-inhibitory concentration (IC50) of less than 100 nM.

On to `CC(C)c1ncc(-c2cnc(N)c(OCc3cccc(C#CC(C)(C)O)c3)c2)s1` [US20240300941, Compound A41], for which the IC50 is less than 100 nM.

Consider `CC(C)(O)C#Cc1cccc(COc2cc(-c3cnc(C4CCNCC4)s3)cnc2N)c1` [US20240300941, Compound A42], for which the IC50 was less than 100 nM.

Turning to `Cc1nc(C2CCN(C)CC2)sc1-c1cnc(N)c(OCc2cccc(C#CC(C)(C)O)c2)c1` [US20240300941, Compound A62], the IC50 is 100 to 1000 nM.
